How the values were obtained:
Assay type in all cases: cell-based
[1] = system: variants of SARS-CoV-2 (B1.1.7, B.1.351, B.1.617.2, and B.1.617.1); details: for prevention of infection of all clades: alone at their highest doses; for reduction of SARS-CoV-2 infection in all lineages: alone or in combination, lowest given concentration
[2] = system: B.1.617.2 (δ-variant); assay: SARS-CoV-2 inhibition assay in Vero E6 cells, B.1.617.2; details: 0.99 μM
[3] = system: B.1.617 (κ-variant); assay: SARS-CoV-2 inhibition assay in Vero E6 cells, B.1.617; details: 0.99 μM
[4] = system: B.1.1.7 (α-variant); assay: SARS-CoV-2 inhibition assay in Vero E6 cells, B.1.1.7; details: 0.99 μM
[5] = system: B.1.351 (β-variant); assay: SARS-CoV-2 inhibition assay in Vero E6 cells, B.1.351; details: 0.99 μM

SMILES	inhibitory effectiveness against all VOCs [1]	prevention of infection of all clades [1]	reduction of SARS-CoV-2 infection in all lineages [1]	effect on δ-SARS-CoV-2 growth [2]	effect on κ-SARS-CoV-2 growth [3]	effect on α-SARS-CoV-2 growth [4]	effect on β-SARS-CoV-2 growth [5]	inhibition of viral growth among all variants ([1]; 1.98 μM)
CC#CCn1c(N2CCC[C@@H](N)C2)nc2c1c(=O)n(Cc1nc(C)c3ccccc3n1)c(=O)n2C [Linagliptin, linagliptin]	dose-dependent inhibitory effectiveness	entirely prevent the infection of all clades	6–10 folds					
N[C@@H](CC(=O)N1CCn2c(nnc2C(F)(F)F)C1)Cc1cc(F)c(F)cc1F [Sitagliptin, sitagliptin]		entirely prevent the infection of all clades	6–10 folds	unable to prevent even the partial growth	partially inhibit	partially inhibit	partially inhibit	6–7 folds
